This is an account of results in patent US7008636B2, “2,3,5-substituted biphenyls useful in the treatment of insulin resistance and hyperglycemia” (Wyeth, priority 1998, dated 2006).

One may read the melting point as the temperature of the solid-liquid transition. One may read the IC50 as the concentration that inhibits the measured activity by half.

Counter-ions that a name gives are not always drawn.

Tested on in the first data set: not given
Test: not given
Conditions: not given
Compound `CCCCCCCCCCCCNC(=O)c1cc(-c2ccc(F)c(Cl)c2)c(OCC(=O)O)c(-c2ccc(F)c(Cl)c2)c1` (as salt: sodium) [Example 24, (3,3″-Dichloro-5′-dodecylcarbamoyl-4,4″-difluoro[1,1′;3′,1″]terphenyl(-2′-yloxy)-acetic acid sodium salt] returned a melting point of 140.2 to 141 °C.

Turning to `CCOP(=O)(COc1c(-c2cccc(C(F)(F)F)c2)cc(C(=O)NCCCCCCCc2ccccc2)cc1-c1cccc(C(F)(F)F)c1)OCC` (hydrate or solvate), the melting point was 84 to 85 °C.

Take `O=C(NCCCCCCCc1ccccc1)c1cc(-c2cccc(C(F)(F)F)c2)c(OCP(=O)(O)O)c(-c2cccc(C(F)(F)F)c2)c1` (hydrate or solvate) [Example 128, [5′-(7-Phenyl-heptylcarbamoyl)-3,3″-bis-trifluoromethyl-[1,1′:3′,1″]terphenyl-2′-yloxymethyl]-phosphonic acid]: the melting point was in the range of 160 to 165 °C.

`COc1ccc(-c2cc(-c3ccc(C(=O)NCCCCCCCc4ccccc4)cc3)cc(-c3ccc(OC)cc3)c2OCc2ccc(C(=O)O)cc2)cc1` (hydrate or solvate) [Example 133]: the melting point lay in the range of 140 to 142 °C.

`O=C(O)c1ccc(COc2c(-c3cccc(C(F)(F)F)c3)cc(C(=O)NCCCCCCCc3ccccc3)cc2-c2cccc(C(F)(F)F)c2)cc1` (hydrate or solvate) [Example 134, 4-[5′-(7-Phenyl-heptylcarbamoyl)-3,3″-bis-trifluoromethyl-[1,1′:3′,1″]terphenyl-2′-yloxymethyl]-benzoic acid] yielded a melting point of 89 to 91 °C.

`O=C(O)COc1c(-c2cccc(C(F)(F)F)c2)cc(C(=O)NCCCCCCCCc2ccccc2)cc1-c1cccc(C(F)(F)F)c1` [Example 7] came in with a melting point of 143 to 145.4 °C.

For the compound `O=C(O)COc1c(-c2ccccc2)cc(C(=O)NCCCCCCCCc2ccccc2)cc1-c1cc(Cl)cc(Cl)c1` [Example 27, [3,5-Dichloro-5′-(8-phenyl-octylcarbamoyl)-[1,1′;3′,1″]terphenyl-2′-yloxy]-acetic acid], the melting point was 82 to 83.1 °C.

In the case of `CCCCCCCCCCCCNC(=O)c1cc(-c2cccc(Cl)c2)c(OCC(=O)O)c(-c2cccc(Cl)c2)c1` [Example 33, (3,3″-Dichloro-5′-dodecylcarbamoyl-[1,1′;3′,1″]terphenyl-2′-yloxy)-acetic acid], the melting point lay in the range of 151 to 156 °C.

Consider `CCCCCCCCCCCCNC(=O)c1cc(Br)c(OCC(=O)O)c(-c2cccc(Cl)c2)c1` [Example 34, (3-Bromo-3′-chloro-5-dodecylcarbamoyl-biphenyl-2-yloxy)-acetic acid], for which the melting point was > 100 °C (dec.).

For the compound `O=C(O)COc1c(-c2cccc(Cl)c2)cc(C(=O)NCCCCCCCCc2ccccc2)cc1-c1cccc(Cl)c1` [Example 35, [3,3″-Dichloro-5′-(8-phenyl-octylcarbamoyl)-[1,1′;3′,1″]terphenyl-2′-yloxy]-acetic acid], the melting point is 165 to 167 °C.

In turn, `O=C(O)COc1c(-c2ccccc2)cc([N+](=O)[O-])cc1-c1ccccc1` [Example 38, (5′-Nitro-[1,1′;3′,1″]terphenyl-2′-yloxy)-acetic acid] displayed a melting point of 153.5 to 156 °C.

`COc1cc(-c2ccccc2)c(OCC(=O)O)c(-c2ccccc2)c1` [Example 39, (5′-Methoxy-[1,1′;3′,1″]terphenyl-2′-yloxy)acetic acid] displayed a melting point of 143 to 145 °C.

For `O=C(O)COc1c(-c2ccccc2)cc(Br)cc1-c1ccccc1` [Example 40, (5′-Bromo-[1,1′;3′,1″]terphenyl-2′-yloxy)-acetic acid], the melting point is > 50 °C (dec.).

`O=C(O)COc1c(-c2ccccc2)cc(-c2ccccc2)cc1-c1ccccc1` [Example 41, [(5′-Phenyl[1,1′:3′,1″-terphenyl]-2′-yl)oxy]acetic acid]: the melting point is > 68 °C (dec.).

On to `O=C(O)COc1c(-c2ccccc2)cc2oc3ccccc3c2c1-c1ccccc1` [Example 42, (1,3-Diphenyl-dibenzofuran-2-yloxy)-acetic acid], for which the melting point is > 120 °C (dec.).

As for `O=C(O)COc1c(Br)cc2oc(C(=O)c3ccccc3)cc2c1Br` [Example 43, (2-Benzoyl-4,6-dibromo-benzofuran-5-yloxy)acetic acid], the melting point lay within 179 to 181 °C.

Consider `CCCCOc1cc(-c2ccccc2)c(OCC(=O)O)c(-c2ccccc2)c1` [Example 44, (5′-Butoxy-[1,1′;3′,1″]terphenyl-2′-yloxy)acetic acid], for which the melting point lay within 92 to 94 °C.

`CCCCCCCCOc1cc(-c2ccccc2)c(OCC(=O)O)c(-c2ccccc2)c1` [Example 45, (5′-Octyloxy-[1,1′;3′,1″]terphenyl-2′-yloxy)acetic acid] had a melting point of 82 to 84 °C.

In the case of `O=C(O)COc1c(-c2cccc(Cl)c2)cc(C(=O)NCCc2ccccn2)cc1-c1cccc(Cl)c1` [Example 52, [3,3″-Dichloro-5′-(2-pyridin-2-yl-ethylcarbamoyl)-[1,1′;3′,1″]terphenyl-2′-yloxy]acetic acid], the melting point was > 94 °C (dec.).

Regarding `O=C(O)COc1c(-c2cccc(Cl)c2)cc(C(=O)N(CCc2ccccc2)Cc2ccccc2)cc1-c1cccc(Cl)c1` [Example 53, [5′-(Benzyl-phenethyl-carbamoyl)-3,3″-Dichloro-[1,1′;3′,1″]terphenyl-2′-yloxy]acetic acid], the melting point is > 67 °C (dec.).

For the compound `O=C(O)COc1c(-c2cccc(Cl)c2)cc(C(=O)NCCCCc2ccccc2)cc1-c1cccc(Cl)c1` [Example 54, [3,3″-Dichloro-5′-(4-phenyl-butylcarbamoyl)-[1,1′;3′,1″]terphenyl-2′-yloxy]acetic acid], the melting point is > 164 °C (dec.).

For `O=C(O)COc1c(Br)cc(C(=O)N(CCc2ccccc2)Cc2ccccc2)cc1-c1cccc(Cl)c1` [Example 55, [5-(Benzyl-phenethyl-carbamoyl)-3-bromo-3′-chloro-biphenyl-2-yloxy]acetic acid], the melting point is > 72 °C (dec.).

In the case of `O=C(O)COc1c(Br)cc(C(=O)NCCc2ccccn2)cc1-c1cccc(Cl)c1` [Example 56, [3-Bromo-3′-chloro-5-(2-pyridin-2-yl-ethylcarbamoyl)-biphenyl-2-yloxy]acetic acid], the melting point is > 102 °C (dec.).

The next data set addresses T1, recombinant, human protein tyrosine phosphatase (PTP) 1B (hPTP1B) (Homo sapiens, UniProt P18031).
T1 construct: made in house
T1 sequence (P18031 1-435): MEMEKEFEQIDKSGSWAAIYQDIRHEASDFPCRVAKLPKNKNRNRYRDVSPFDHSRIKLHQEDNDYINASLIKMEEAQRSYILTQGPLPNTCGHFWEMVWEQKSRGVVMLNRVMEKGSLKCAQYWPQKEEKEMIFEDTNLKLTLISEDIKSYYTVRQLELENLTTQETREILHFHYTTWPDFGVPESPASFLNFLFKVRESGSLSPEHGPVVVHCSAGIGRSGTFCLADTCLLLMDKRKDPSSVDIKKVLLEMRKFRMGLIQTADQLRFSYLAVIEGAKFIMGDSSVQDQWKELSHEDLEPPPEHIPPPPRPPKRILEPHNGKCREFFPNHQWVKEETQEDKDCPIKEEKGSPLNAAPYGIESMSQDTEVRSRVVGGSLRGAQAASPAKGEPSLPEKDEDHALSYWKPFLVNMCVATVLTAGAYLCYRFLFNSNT
In words: Inhibition of tri-phosphorylated insulin receptor dodecaphosphopeptide dephosphorylation by hPTP1B. Format: biochemical. To be noted: 50 μM IR triphosphopeptide substrate, 5 min preincubation and 5 min reaction at 37° C., malachite green-ammonium molybdate phosphate detection.
With `COc1cc(COc2c(Br)cc(C(=O)NCCCCCCCCc3ccccc3)cc2-c2cccc(C(F)(F)F)c2)ccc1C(=O)O` [Example 204, 4-[3-Bromo-5-(8-phenyl-octylcarbamoyl)-3′-trifluoromethyl-biphenyl-2-yloxymethyl]-2-methoxy-benzoic acid], the IC50 was found to be 73 nM.

In the case of `O=C(NCCCCCCCCc1ccccc1)c1cc(-c2cccc(C(F)(F)F)c2)c(OCc2nnn[nH]2)c(-c2cccc(C(F)(F)F)c2)c1` [Example 206, 2′-(1H-Tetrazol-5-ylmethoxy)-3,3″-bis-trifluoromethyl-[1,1′:3′1″]terphenyl-5′-carboxylic acid (8-phenyl-octyl)-amide], the IC50 came to 286 nM.

Take `O=C(NCCCCCCCCc1ccccc1)c1cc(Br)c(OCc2ccc(C(=O)O)c(O)c2)c(-c2cccc(C(F)(F)F)c2)c1` [Example 208, 4-[3-Bromo-5-(8-phenyl-octylcarbamoyl)-3′-trifluoromethyl-biphenyl-2-yloxymethyl]-2-hydroxy-benzoic acid]: the IC50 is 83 nM.

As to `O=C(NCCCCCCCCc1ccccc1)c1ccc(OS(=O)(=O)c2ccc(C(=O)O)c(O)c2)c(Br)c1` [Example 210, 4-[2-Bromo-4-(8-phenyl-octylcarbamoyl)-phenoxysulfonyl]-2-hydroxy-benzoic acid], the IC50 was 530 nM.

On to `O=C(NCCCCCCCCc1ccccc1)c1cc(-c2cccc(C(F)(F)F)c2)c(OCCOc2ccc(C(=O)O)c(O)c2)c(-c2cccc(C(F)(F)F)c2)c1` [Example 211, 2-Hydroxy-4-{2-[5′-(8-phenyl-octylcarbamoyl)-3,3″-bis-trifluoromethyl-[1,1′:3′,1″]terphenyl-2′-yloxy]-ethoxy}-benzoic acid], for which the IC50 was found to be 60 nM.

For the compound `CN(CCCCCCCCc1ccccc1)C(=O)c1cc(Br)c(OCC(=O)O)c(-c2cccc(C(F)(F)F)c2)c1` [Example 212, {3-Bromo-5-[methyl-(8-phenyl-octyl)-carbamoyl]-3′-trifluoromethyl-biphenyl-2-yloxy]-acetic acid], the IC50 was found to be 272 nM.

In the case of `CN(CCCCCCCCc1ccccc1)C(=O)c1cc(-c2ccc(F)c(Cl)c2)c(OCC(=O)O)c(-c2ccc(F)c(Cl)c2)c1` [Example 213, {3,3″-Dichloro-4,4″difluoro-5′-[methyl-(8-phenyl-octyl)-carbamoyl]-[1,1′;3′1″]terphenyl-2′yloxy}-acetic acid], the IC50 amounted to 198 nM.

With “Ammonium molybdate tetrahydrate [reference compound]”, the IC50 was 8700 nM.

On to “[[4,4′-Dimethoxy-5′-[4-[[(7-phenylheptyl)amino]carbonyl]phenyl][1,1′:3′,1-terphenyl]-2′-yl]oxy]acetic acid [Example 131]”, for which the IC50 was determined as 124 nM.

In the case of “[[5′-[4-[[(7-Phenylheptyl)amino]carbonyl]phenyl]-3,3′-bis(trifluoromethyl)[1,1′:3′,1′-terphenyl]-2′-yl]oxy]acetic acid [Example 132]”, the IC50 worked out at 84 nM.
